Reference: US20210386877A1, “RADIOTHERAPEUTIC COMBINATION THERAPY FOR THE TREATMENT OF CANCER” (Andarix Pharmaceuticals, Inc., priority 2019, published 2021)
*1 amine or outer side, *2 acyl side, *3 side chain or, on linkers, in order; H or OH if unused. Where a SMILES comes first, the peptide text is derived from it. Bridges are numbered along the chain shown (N, C = ends). Roman numbers before positions name the chains, in order. [ ]: non-standard residue; d: D form. ξ: configuration not given here. Phe(4-NH2) = Nc1ccc(C[C@H](N)C(=O)O)cc1; NMehCys = CN[C@@H](CCS)C(=O)O; Thr(3ξ) = CC(O)[C@H](N)C(=O)O; Dap = NC[C@H](N)C(=O)O; X1 = O=C(C[*:1])[*:2]

Experiments:
[1] = intravenously, 1.5 mg/m^2, daily×5, every 21 days; cited from earlier work
[2] = test system: SSTR; conditions: P2045 radiolabeled with radioactive isotopes of rhenium; versus Depreotide; cited from earlier work
[3] = P2045 radiolabeled with radioactive isotopes of rhenium; versus Depreotide; cited from earlier work
[4] = test system: SSTR2; test: SSTR2 expression in small cell cell lines after 24 hours of incubation (FIG. 2, FIG. 3); format: cell-based; conditions: H69, H187 and H417 cell lines, 3 and 5 mM valproic acid, versus beta-actin (control)
Protocol: FIG. 3 graphically quantifies the expression of SSTR2 in small cell cell lines after 24 hours of incubation with 3 and 5 mM valproic acid versus the demethylating agent, Decitabine.
FIG. 3 graphically quantifies the expression of SSTR2 […].

[5] = cited from earlier work

CC[C@@]1(O)C(=O)OCc2c1cc1n(c2=O)Cc2cc3c(CN(C)C)c(O)ccc3nc2-1 [topotecan]
most common toxicities [1]: hematologic (grade 4 neutropenia, thrombocytopenia and grade 3/4 anemia)

CC(O)[C@H](NC(=O)[C@H](CS)NC(=O)[C@H](Cc1ccc(N)cc1)NC(=O)[C@@H](N)CNC(=O)CSCC[C@H]1C(=O)N[C@@H](Cc2ccc(O)cc2)C(=O)N[C@H](Cc2c[nH]c3ccccc23)C(=O)N[C@@H](CCCCN)C(=O)N[C@@H](C(C)O)C(=O)N[C@@H](Cc2ccccc2)C(=O)N1C)C(=O)N[C@@H](CO)C(=O)O (stereo partly drawn) [P2045, cyclo-[Tyr-(D-Trp)-Lys-Thr-Phe-(N-Me)Hcy]CH2CO-β-Dap-Phe(4-NH2)-Cys-Thr-Ser-OH)]] (I: cyclo(F[NMehCys]Y[dW]K[Thr(3ξ)]) / II: H-[Dap][Phe(4-NH2)]C[Thr(3ξ)]S-OH; linker I:2-II:1 via X1)
SSTR affinity [2]: retains the SSTR affinity of Depreotide
kidney and whole body retention [3]: lower kidney and whole body retention

CCCC(CCC)C(=O)O [valproic acid]
SSTR2 expression [4]: upregulation of SSTR2
solubility in organic solvents [5]: very soluble
